In patent US5300629A, “Bactericidal and/or bacteriostatic peptides isolated from hemolymph of honeybees” (Plant Genetic Systems, N.V., priority 1987, dated 1994):
Where a SMILES comes first, the peptide text is derived from it.

Experiments:
Type in all cases: cell-based
[1] = system: Enterobacter cloacae LMG 2783; assay: Inhibition zone assay; design: key: --: "-" means that no inhibition has been found; conditions: I and B 10 ul
[2] = system: Klebsiella aerogenes 1961 E; assay: Inhibition zone assay; design: key: --: "-" means that no inhibition has been found; conditions: I and B 10 ul, L 5 ug
[3] = system: Proteus morganii CuETM 77-83; assay: Inhibition zone assay; design: key: --: "-" means that no inhibition has been found; conditions: I and B 10 ul, L 5 ug
[4] = system: Salmonella typhimurium NCTC 74; assay: Inhibition zone assay; design: key: --: "-" means that no inhibition has been found; conditions: I and B 10 ul
[5] = system: Salmonella enteritidis 83/34; assay: Inhibition zone assay; design: key: --: "-" means that no inhibition has been found; conditions: I and B 10 ul
Salmonella Newport CD 94 = assay: Inhibition zone assay; design: key: --: "-" means that no inhibition has been found; conditions: I 10 ul
ATCC 17991 = assay: Inhibition zone assay; design: key: --: "-" means that no inhibition has been found; conditions: Salmonella marcescens ATCC 17991
[6] = system: Listeria monocytogenes B5; assay: Inhibition zone assay; design: key: --: "-" means that no inhibition has been found; conditions: L 5 ug
[7] = system: Erwinia salicis NCPPB 2530; assay: Inhibition zone assay; design: key: --: "-" means that no inhibition has been found; conditions: I and B 10 ul, L 5 ug
[8] = system: Pseudomonas solanacearum ATCC 11696; design: key: --: "-" means that no inhibition has been found; conditions: * synthetic ApidIa and heattreated immune lymph instead of Bee6 and native immune lymph
[9] = system: Rhizobium phaseoli CIAT 899; assay: Inhibition zone assay; design: key: --: "-" means that no inhibition has been found; conditions: I and B 10 ul, L 5 ug
[10] = system: Xanthomonas maltophilia JCM1977; assay: Inhibition zone assay; design: key: --: "-" means that no inhibition has been found; conditions: Xanthomonas maltophilia JCM1977 (Tables 2 and 3)
[11] = system: Flavobacterium devorans NRRL B-54; assay: Inhibition zone assay; design: key: --: "-" means that no inhibition has been found; conditions: I and B 10 ul, L 5 ug
[12] = system: Flavobacterium capsulatum ATCC 14666; assay: Inhibition zone assay; design: key: --: "-" means that no inhibition has been found
[13] = system: Janthinobacterium lividum Sneath HB; assay: Inhibition zone assay; design: key: --: "-" means that no inhibition has been found; conditions: I and B 10 ul, L 5 ug
[14] = system: Pseudomonas paucimobilis ATCC 29837; assay: Inhibition zone assay; conditions: L 5 ug
[15] = system: Pseudomonas acidovorans CuETM 83-109; assay: Inhibition zone assay; design: key: --: "-" means that no inhibition has been found; conditions: I and B 10 ul, L 5 ug

## CC[C@H](C)[C@H](NC(=O)[C@H](CCCCN)NC(=O)[C@@H]1CCCN1C(=O)[C@H](CC(N)=O)NC(=O)[C@H](Cc1ccccc1)NC(=O)[C@@H]1CCCN1C(=O)CNC(=O)[C@H](CCC(N)=O)NC(=O)CNC(=O)[C@@H]1CCCN1C(=O)[C@H](Cc1ccccc1)NC(=O)[C@@H](NC(=O)[C@@H]1CCCN1C(=O)[C@H](Cc1ccccc1)NC(=O)[C@@H]1CCCN1C(=O)[C@H](CCCNC(=N)N)NC(=O)[C@H](CCCNC(=N)N)NC(=O)CNC(=O)[C@@H]1CCCN1C(=O)[C@H](CCC(N)=O)NC(=O)[C@@H]1CCCN1C(=O)[C@@H](NC(=O)[C@H](CC(N)=O)NC(=O)[C@@H]1CCCN1C(=O)[C@H](CC(C)C)NC(=O)[C@@H]1CCCN1C(=O)[C@@H](NC(=O)[C@@H](N)Cc1ccc(O)cc1)C(C)C)C(C)C)[C@@H](C)O)C(=O)N[C@@H](CCCCN)C(=O)N[C@@H](Cc1c[nH]c2ccccc12)C(=O)N1CCC[C@H]1C(=O)N[C@@H](CCC(N)=O)C(=O)NCC(=O)N[C@@H](Cc1ccc(O)cc1)C(=O)O [bee 9] (H-YVPLPNVPQPGRRPFPTFPGQGPFNPKIKWPQGY-OH)
[1]
  diameter of growth-inhibition zone: --
[2]
  diameter of growth-inhibition zone: --
[3]
  diameter of growth-inhibition zone: --
[4]
  diameter of growth-inhibition zone: --
[5]
  diameter of growth-inhibition zone: --
Salmonella Newport CD 94
  diameter of growth-inhibition zone: --
ATCC 17991
  diameter of growth-inhibition zone: --
[6]
  diameter of growth-inhibition zone: --
[7]
  diameter of growth-inhibition zone: --
[8]
  diameter of growth-inhibition zone: --
[9]
  diameter of growth-inhibition zone: --
[10]
  diameter of growth-inhibition zone: --
[11]
  diameter of growth-inhibition zone: --
[12]
  diameter of growth-inhibition zone: --
[13]
  diameter of growth-inhibition zone: --
[14]
  diameter of growth-inhibition zone: 4 mm
[15]
  diameter of growth-inhibition zone: --
